Results published in patent US20030095958A1, “Inhibitors of bace” (priority 2001, published 2003).

Each molecule was assayed against BACE (Homo sapiens, UniProt P56817) (assay: Ki Determination for the Inhibition of BACE (FS-1 peptide fluorescence cleavage assay)). Settings: apparent Ki; 50 nM BACE, 10 μM FS-1 substrate, 0.1M sodium acetate pH 4.5.
Format: biochemical
Procedure: Compounds were tested against BACE activity using the following modifications of the method described in J. Ermolieff et al. (2000) Biochemistry 39(51):16263.
All compound evaluations were performed in 0.1M sodium acetate (buffer), pH, 4.5, 10 μM substrate (FS-1 peptide as described in the reference above; this is commercially available), varying concentrations of the test compound or control (DMSO to yeild 2% vol/vol), and 50 nM BACE. The assay volume is 100 μL.
Two microliters of the test compound dissolved in DMSO are added to each well in a 96-well microtiter plate. Seventy eight microliters of BACE are mixed with buffer and added to each well then incubated at room temperature for 15 minutes. A stock solution of 50 μM FS-1 substrate was prepared by addition of an aliquot of FS-1 substrate which was dissolved in DMSO to the buffer and mixed well. The reaction is initiated by addition of 20 μL of the FS-1 mix to the remaining, preincubated assay components. The cleavage reaction of substrate to product is measured using a Molecular Devices fluorescence plate reader with the excitation and emission filter pairs of 355 nm and 495 nm, respectively. Apparent Ki values are determined by fitting the data to the integrated equation for competitive tight binding inhibition.

Sequence of BACE (P56817 46-501): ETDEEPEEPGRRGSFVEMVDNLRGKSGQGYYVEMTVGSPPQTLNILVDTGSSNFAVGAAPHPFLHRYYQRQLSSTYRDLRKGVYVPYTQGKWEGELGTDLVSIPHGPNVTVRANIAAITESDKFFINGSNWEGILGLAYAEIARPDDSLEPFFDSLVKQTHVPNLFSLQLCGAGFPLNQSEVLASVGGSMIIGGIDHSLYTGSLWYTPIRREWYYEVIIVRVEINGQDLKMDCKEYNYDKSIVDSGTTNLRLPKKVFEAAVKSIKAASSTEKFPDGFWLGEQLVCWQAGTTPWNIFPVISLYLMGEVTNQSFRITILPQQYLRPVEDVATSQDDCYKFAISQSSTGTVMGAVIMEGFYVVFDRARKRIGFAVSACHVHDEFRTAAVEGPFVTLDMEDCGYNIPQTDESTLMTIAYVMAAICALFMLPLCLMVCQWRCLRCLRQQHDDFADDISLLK

| SMILES | Ki |
| --- | --- |
| O=C(c1cccc2ccccc12)n1c2c(c3cc(OCc4ccc(C(F)(F)F)cc4)ccc31)CCNC2 [Compound 506, Naphthalen-1-yl-[6-(4-trifluoromethyl-benzyloxy)-1,2,3,4-tetrahydro-b-carbolin-9-yl]-methanone] | < 3 µM |
| O=C(NC(c1ccccc1)c1ccccc1)C1CNCCC1c1ccc(COc2ccccc2C(F)(F)F)cc1 (stereo not drawn) [Compound 211, 4-[4-(2-Trifluoromethyl-phenoxymethyl)-phenyl]-piperidine-3-carboxylic acid benzhydryl-amide] | 3 to 30 µM |
| O=C(NCc1cccc2ccccc12)C1CNCCC1c1ccc(COc2ccccc2C(F)(F)F)cc1 (stereo not drawn) [Compound 215, 4-[4-(2-Trifluoromethyl-phenoxymethyl)-phenyl]-piperidine-3-carboxylic acid (naphthalen-1-ylmethyl)-amide] | 3 to 30 µM |
| CC(NC(=O)C1CNCCC1c1ccc(-c2ccccc2)cc1)c1cccc2ccccc12 (stereo not drawn) [Compound 406] | 3 to 30 µM |
| CCOC(=O)c1cc(Br)cc(NCc2ccc3ccccc3n2)c1N1CCNCC1 [Compound 188, 5-Bromo-2-piperazin-1-yl-3-[(quinolin-2-ylmethyl)-amino]-benzoic acid ethyl ester] | 3 to 30 µM |
| FC(F)(F)c1ccccc1OCc1cc(-c2cccnc2)c(COc2ccccc2C(F)(F)F)cc1C1=CCNCC1 [Compound 340, 3-[4-(1,2,3,6-Tetrahydro-pyridin-4-yl)-2,5-bis-(2-trifluoromethyl-phenoxymethyl)-phenyl]-pyridine] | < 3 µM |
| Cc1cccc(Oc2ccc(N3CCNCC3)c(NC(=O)c3cccc4ccccc34)c2)c1 [Compound 141, Naphthalene-1-carboxylic acid (2-piperazin-1-yl-5-m-tolyloxy-phenyl)-amide] | 3 to 30 µM |
| FC(F)(F)c1ccccc1OCc1cc(-c2ccco2)c(COc2ccccc2C(F)(F)F)cc1C1=CCNCC1 [Compound 346, 4-[4-Furan-2-yl-2,5-bis-(2-trifluoromethyl-phenoxymethyl)-phenyl]-1,2,3,6-tetrahydro-pyridine] | < 3 µM |
| FC(F)(F)c1ccccc1OCc1cc(COc2ccccc2C(F)(F)F)c(C2=CCNCC2)cc1COc1ccccc1C(F)(F)F [Compound 356, 4-[2,4,5-Tris-(2-trifluoromethyl-phenoxymethyl)-phenyl]-1,2,3,6-tetrahydro-pyridine] | < 3 µM |
| O=C(c1cccc2ccccc12)n1c2c(c3cc(OCc4cc(C(F)(F)F)ccc4C(F)(F)F)ccc31)CCNC2 [Compound 517, [6-(2,5-Bis-trifluoromethyl-benzyloxy)-1,2,3,4-tetrahydro-b-carbolin-9-yl]-naphthalen-1-yl-methanone] | < 3 µM |
| O=C(Nc1cc(-c2ccc(S(=O)(=O)NC3CCCCC3)cc2)ccc1N1CCNCC1)c1cccc2ccccc12 [Compound 147, Naphthalene-1-carboxylic acid (4′-cyclohexylsulfamoyl-4-piperazin-1-yl-biphenyl-3-yl)-amide] | < 3 µM |
| O=C(OCc1cc(C2=CCNCC2)c(COc2ccccc2C(F)(F)F)cc1-c1ccoc1)c1cccnc1Cl [Compound 386, 2-Chloro-nicotinic acid 2-furan-3-yl-5-(1,2,3,6-tetrahydro-pyridin-4-yl)-4-(2-trifluoromethyl-phenoxymethyl)-benzyl ester] | < 3 µM |
| O=C(NC1CCc2ccccc2C1)C1CNCCC1c1ccc(COc2ccccc2C(F)(F)F)cc1 (stereo not drawn) [Compound 219, 4-[4-(2-Trifluoromethyl-phenoxymethyl)-phenyl]-piperidine-3-carboxylic acid (1,2,3,4-tetrahydro-naphthalen-2-yl)-amide] | 3 to 30 µM |
| FC(F)(F)c1ccccc1COc1ccc2c(c1)c1c(n2Cc2ccc3ccccc3c2)CNCC1 [Compound 535, 9-Naphthalen-2-ylmethyl-6-(2-trifluoromethyl-benzyloxy)-2,3,4,9-tetrahydro-1H-b-carboline] | < 3 µM |
| FC(F)(F)c1ccc(-c2cc(COc3ccccc3C(F)(F)F)c(C3=CCNCC3)cc2COc2ccccc2C(F)(F)F)cc1 [Compound 338, 4-[4′-Trifluoromethyl-2,5-bis-(2-trifluoromethyl-phenoxymethyl)-biphenyl-4-yl]-1,2,3,6-tetrahydro-pyridine] | 3 to 30 µM |
| O=C(NCc1ccco1)C1CNCCC1c1ccc(COc2ccccc2C(F)(F)F)cc1 (stereo not drawn) [Compound 203, 4-[4-(2-Trifluoromethyl-phenoxymethyl)-phenyl]-piperidine-3-carboxylic acid (furan-2-ylmethyl)-amide] | > 30 µM |
| O=c1cc(-c2ccccc2)nc(C2CCNCC2)n1Cc1ccccc1C(F)(F)F [Compound 214, 6-Phenyl-2-piperidin-4-yl-3-(2-trifluoromethyl-benzyl)-3H-pyrimidin-4-one] | 3 to 30 µM |
| FC(F)Oc1ccccc1COc1ccc2c(c1)c1c(n2Cc2ccc3ccccc3c2)CNCC1 [Compound 516, 6-(2-Difluoromethoxy-benzyloxy)-9-naphthalen-2-ylmethyl-2,3,4,9-tetrahydro-1H-b-carboline] | < 3 µM |
| O=C(Nc1cc(C(F)(F)F)c(-c2ccc(Cl)c(Cl)c2)cc1N1CCNCC1)c1cccc2ccccc12 [Compound 168, Naphthalene-1-carboxylic acid (3′,4′-dichloro-5-piperazin-1-yl-2-trifluoromethyl-biphenyl-4-yl)-amide] | < 3 µM |
| O=C(Nc1cc(C(F)(F)F)ccc1N1CCNCC1)c1cccc2ccccc12 [Compound 114, Naphthalene-1-carboxylic acid (2-piperazin-1-yl-5-trifluoromethyl-phenyl)-amide] | 3 to 30 µM |
| O=C(Nc1cc(-c2cccc(C(F)(F)F)c2)ccc1N1CCNCC1)c1cccc2ccccc12 [Compound 128, Naphthalene-1-carboxylic acid (4-piperazin-1-yl-3′-trifluoromethyl-biphenyl-3-yl)-amide] | 3 to 30 µM |
| O=C(Nc1ccc(COc2ccccc2C(F)(F)F)cc1N1CCNCC1)c1nccc2ccccc12 [Compound 178, Isoquinoline-1-carboxylic acid [2-piperazin-1-yl-4-(2-trifluoromethyl-phenoxymethyl)-phenyl]-amide] | < 3 µM |
| O=C(NCC1CNCCC1c1ccc(COc2ccccc2C(F)(F)F)cc1)Nc1cccc2ccccc12 (stereo not drawn) [Compound 224, 1-Naphthalen-1-yl-3-{4-[4-(2-trifluoromethyl-phenoxymethyl)-phenyl]-piperidin-3-ylmethyl}-urea] | 3 to 30 µM |
| O=C(Nc1cnc(-c2ccc(Cl)c(Cl)c2)nc1N1CCNCC1)c1cccc2ccccc12 [Compound 217, Naphthalene-1-carboxylic acid [2-(3,4-dichloro-phenyl)-4-piperazin-1-yl-pyrimidin-5-yl]-amide] | 3 to 30 µM |
| FC(F)(F)c1ccc(COc2ccc3c(c2)c2c(n3Cc3ccc4ccccc4c3)CNCC2)cc1 [Compound 534, 9-Naphthalen-2-ylmethyl-6-(4-trifluoromethyl-benzyloxy)-2,3,4,9-tetrahydro-1H-b-carboline] | < 3 µM |
| O=C(Nc1cc(Br)cc(COc2ccccc2C(F)(F)F)c1N1CCNCC1)c1nccc2ccccc12 [Compound 176, Isoquinoline-1-carboxylic acid [5-bromo-2-piperazin-1-yl-3-(2-trifluoromethyl-phenoxymethyl)-phenyl]-amide] | < 3 µM |
| O=C(O)C1CN(c2ccc(-c3ccc(C(F)(F)F)cc3)cc2NCc2ccc3ccccc3c2)CCN1 (stereo not drawn) [Compound 191, 4-{3-[(Naphthalen-2-ylmethyl)-amino]-4′-trifluoromethyl-biphenyl-4-yl}-piperazine-2-carboxylic acid] | 3 to 30 µM |
